Source: patent US4725591A, “β-lactamase inhibitory composition” (Takeda Chemical Industries, Ltd., priority 1980, dated 1988)

Key:
[1] = target: T1, β-lactamase produced by Enterobacter cloacae IFO 12937 (Enterobacter cloacae, UniProt P05364); test: Inhibitor concentration required to inhibit β-lactamase (cephalosporinase) activity by 50%, micro-iodometric method; format: biochemical; conditions: Enterobacter cloacae IFO 12937 cephalosporinase; 0.05M phosphate buffer pH 7, 30° C., 10 minutes preincubation; cephalothin or ampicillin 0.1 mM; read-out: I50 (converted)
T1 construct: The β-lactamase produced by Enterobacter cloacae IFO 12937; endogenous in cells; host or cells: Enterobacter cloacae IFO 12937
T1 sequence (P05364 21-381): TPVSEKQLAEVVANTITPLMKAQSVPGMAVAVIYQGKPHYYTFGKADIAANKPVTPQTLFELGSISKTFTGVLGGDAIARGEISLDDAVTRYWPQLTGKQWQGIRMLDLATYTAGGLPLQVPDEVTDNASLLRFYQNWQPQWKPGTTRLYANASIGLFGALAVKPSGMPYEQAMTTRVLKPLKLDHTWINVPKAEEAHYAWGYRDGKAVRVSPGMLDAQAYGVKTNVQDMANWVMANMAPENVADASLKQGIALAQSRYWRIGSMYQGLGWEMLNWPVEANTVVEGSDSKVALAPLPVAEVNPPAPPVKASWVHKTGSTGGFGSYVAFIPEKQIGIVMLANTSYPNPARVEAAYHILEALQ
Description: Determination of the inhibitor concentration required to inhibit the enzyme activity by 50%
The β-lactamase produced by Enterobacter cloacae IFO 12937 is used as a typical example of cephalosporinase, and that produced by Staphylococcus aureus 1840 as typical example of penicillinase. The β-lactamase in incubated is 0.05M phosphate buffer (pH 7) with an appropriate dilution of an inhibitor preparation at 30° C. for 10 minutes. Cephalothin or ampicillin is then added in an amount sufficient to produce a final concentration of 0.1 mM, and the enzymatic reaction is allowed to proceed for 10 minutes. The enzyme activity is determined by the micro-iodometric method [Journal of general Microbiology, vol. 33, page 121 (1963)]. Hereinafter, the inhibitor concentration required to inhibit the enzyme activity by 50% is expressed as I50. The I50 values for Enterobacter cloaceae are shown in Table 1, and the I50 values for Staphylococcus aureus in Table 2.

[2] = system: Enterobacter cloacae TN 587; test: Synergy with Cefotiam, agar dilution MIC; format: cell-based; conditions: 18 hours; for MIC of Cefotiam with 1 μg/ml of Compound: Table 3, 1 μg/ml test compound in agar, inoculum 10^8 per ml
Description: (§1) The inoculum concentration is 10^8 per ml, and the medium is prepared by using Trypticase® soy agar (Becton Dickinson & Company, USA).

[3] = system: Citrobacter freundii IFO 12681; test: Synergy with Cefotiam, agar dilution MIC; format: cell-based; conditions: 18 hours; for MIC of Cefotiam with 1 μg/ml of Compound: Table 3, 1 μg/ml test compound in agar, inoculum 10^8 per ml
Description: as §1

[4] = system: Citrobacter freundii GN 1706; test: Synergy with Cefotiam, agar dilution MIC; format: cell-based; conditions: 18 hours; for MIC of Cefotiam with 1 μg/ml of Compound: inoculum 10^8 per ml; for MIC of Cefotiam alone: Trypticase soy agar, unit assumed
Description: as §1

Proteus vulgaris GN 5297 = test: Synergy with Cefotiam, agar dilution MIC; format: cell-based; conditions: 18 hours; for MIC of Cefotiam with 1 μg/ml of Compound: inoculum 10^8 per ml; for MIC of Cefotiam alone: Trypticase soy agar, unit assumed
Description: as §1

[5] = system: Serratia marcescens IFO 12648; test: Synergy with Cefotiam, agar dilution MIC; format: cell-based; conditions: 18 hours; for MIC of Cefotiam with 1 μg/ml of Compound: Table 3, 1 μg/ml test compound in agar, inoculum 10^8 per ml
Description: as §1

[6] = system: Proteus morganii IFO 3168; test: Synergy with Cefotiam, agar dilution MIC; format: cell-based; conditions: 18 hours; for MIC of Cefotiam with 1 μg/ml of Compound: Table 3, 1 μg/ml test compound in agar, inoculum 10^8 per ml
Description: as §1

[7] = system: Enterobacter cloacae IFO 12937; test: Synergy with Cefotiam, agar dilution MIC; format: cell-based; conditions: 18 hours; for MIC of Cefotiam with 1 μg/ml of Compound: Table 4, 1 μg/ml test compound in agar, inoculum 10^8 per ml
Description: as §1

Proteus morganii TN 387 = test: Synergy with Cefotiam, agar dilution MIC; format: cell-based; conditions: 18 hours; for MIC of Cefotiam with 1 μg/ml of Compound: Table 4, 1 μg/ml test compound in agar, inoculum 10^8 per ml
Description: as §1

[8] = system: Citrobacter freundii TN 512; test: Synergy with Cefotiam, agar dilution MIC; format: cell-based; conditions: 18 hours; for MIC of Cefotiam with 1 μg/ml of Compound: Table 4, 1 μg/ml test compound in agar, inoculum 10^8 per ml
Description: as §1

[9] = Table 3, 1 μg/ml test compound in agar
[10] = Table 4, 1 μg/ml test compound in agar
[11] = Table 3, inoculum 10^8 per ml, Trypticase soy agar, unit assumed
[12] = Table 4, inoculum 10^8 per ml, Trypticase soy agar, unit assumed

Structure (SMILES) | IC50 [1] [nM] | MIC of Cefotiam with 1 μg/ml of Compound [2] | MIC of Cefotiam with 1 μg/ml of Compound [3] | MIC of Cefotiam with 1 μg/ml of Compound [4, 9] | MIC of Cefotiam with 1 μg/ml of Compound (Proteus vulgaris GN 5297; [9]) | MIC of Cefotiam with 1 μg/ml of Compound [5] | MIC of Cefotiam with 1 μg/ml of Compound [6] | MIC of Cefotiam with 1 μg/ml of Compound [7] | MIC of Cefotiam with 1 μg/ml of Compound (Proteus morganii TN 387) | MIC of Cefotiam with 1 μg/ml of Compound [4, 10] | MIC of Cefotiam with 1 μg/ml of Compound [8] | MIC of Cefotiam with 1 μg/ml of Compound (Proteus vulgaris GN 5297; [10]) | further results
CC(C)ON=C(C(=O)NC1CN(S(=O)(=O)O)C1=O)c1csc(NC(=O)CCl)n1 (centres unmarked) [Compound 28, Sodium 3-[2-(2-chloroacetamidothiazol-4-yl)-2-(1-methylethoxyimino)acetamido]-2-oxoazetidine-1-sulfonae] | 2420 | 50 | 50 | 50 | 100 | 200 | 100 | – | – | – | – | – | –
CC(C)ON=C(C(=O)NC1CN(S(=O)(=O)[O-])C1=O)c1csc(NS(C)(=O)=O)n1.[Na+] (centres unmarked) | 4.4 | 12.5 | 12.5 | 100 | 100 | 200 | 25 | – | – | – | – | – | –
CON=C(C(=O)NC1CN(S(=O)(=O)O)C1=O)c1csc(NS(=O)(=O)O)n1 (centres unmarked) [Compound 29] | 163 | – | – | – | – | – | – | 0.78 | 100 | 12.5 | 0.39 | 200 | –
COC1(NC(=O)[C@H](NC(=O)N2CCN(N=Cc3ccco3)C2=O)c2ccccc2)CN(S(=O)(=O)O)C1=O (some centres unmarked) [Compound 3] | 617 | – | – | – | – | – | – | 3.13 | 0.39 | 12.5 | 0.39 | 400 | –
CC(C)(C)OC(=O)C(C)(C)ON=C(C(=O)NC1CN(S(=O)(=O)[O-])C1=O)c1csc(NS(=O)(=O)[O-])n1.[Na+].[Na+] (centres unmarked) | 9.14 | – | – | – | – | – | – | 0.39 | 0.2 | 3.13 | 0.39 | < 0.2 | –
CN(C)CCn1nnnc1SCC1=C(C(=O)O)N2C(=O)[C@@H](NC(=O)Cc3csc(N)n3)[C@H]2SC1 [Cefotiam, reference compound] | – | – | – | – | – | – | – | – | – | – | – | – | MIC of Cefotiam alone [2, 11]: > 400 µg/mL; MIC of Cefotiam alone [7, 12]: 100 µg/mL; MIC of Cefotiam alone (Proteus morganii TN 387; [12]): 200 µg/mL; MIC of Cefotiam alone [3, 11]: 200 µg/mL; MIC of Cefotiam alone ([4]; Table 3, inoculum 10^8 per ml): 200 µg/mL; MIC of Cefotiam alone ([4]; Table 4, inoculum 10^8 per ml): 50 µg/mL; MIC of Cefotiam alone [8, 12]: 625 µg/mL; MIC of Cefotiam alone (Proteus vulgaris GN 5297; Table 3, inoculum 10^8 per ml): 100 µg/mL; MIC of Cefotiam alone (Proteus vulgaris GN 5297; Table 4, inoculum 10^8 per ml): 400 µg/mL; MIC of Cefotiam alone [5, 11]: > 400 µg/mL; MIC of Cefotiam alone [6, 11]: 400 µg/mL
CC(C)ON=C(C(=O)NC1CN(S(=O)(=O)[O-])C1=O)c1csc(=N)n1S(C)(=O)=O.[Na+] (centres unmarked) | 4.19 | 3.13 | 6.25 | 50 | 100 | 200 | 50 | – | – | – | – | – | –
CC(C)(C)OC(=O)C(C)(C)ON=C(C(=O)NC1CN(S(=O)(=O)O)C1=O)c1csc(NC(c2ccccc2)(c2ccccc2)c2ccccc2)n1 (centres unmarked) [Compound 27, Sodium 3-[2-(2-tritylaminothiaozl-4-yl)-2-[(1-tert-butoxycarbonyl-1-methylethoxy)imino]acetamido]-2-oxoazetidine-1-sulfonate] | 69.5 | – | – | – | – | – | – | 0.39 | < 0.2 | 3.13 | 0.39 | < 0.2 | –
